According to patent US11364232B2, “Polymer of gamma-glutamyl transpeptidase catalyzing hydrolysis-induced charge reversal and its application in the field of drug delivery” (ZHEJIANG UNIVERSITY, priority 2017, dated 2022):

Biological target: γ-glutamyl transpeptidase (Homo sapiens, UniProt P19440)
Assay: γ-glutamyl transpeptidase (GGT)-catalyzed hydrolysis of monomers followed by NMR
Assay type: biochemical
Conditions: monomer 25 μM in PBS pH 7.4 (D2O), GGT 1 U/mL, 37° C.
Experimental: Dissolve monomers GABEA or GAEA in PBS solution (pH=7.4, prepared by D2O) and configure the monomer concentration to 25 μM in the PBS solution. γ-glutamyl transpeptidase was added into the solution respectively so that the concentration of γ-glutamyl transpeptidase in the solution is 1 U/mL. At this time, the obtained product was immediately detected by nuclear magnetic resonance. The sample was placed in a 37° C. incubator and analyzed the nuclear magnetic resonance at different times.

Sequence of γ-glutamyl transpeptidase (P19440 whole entry): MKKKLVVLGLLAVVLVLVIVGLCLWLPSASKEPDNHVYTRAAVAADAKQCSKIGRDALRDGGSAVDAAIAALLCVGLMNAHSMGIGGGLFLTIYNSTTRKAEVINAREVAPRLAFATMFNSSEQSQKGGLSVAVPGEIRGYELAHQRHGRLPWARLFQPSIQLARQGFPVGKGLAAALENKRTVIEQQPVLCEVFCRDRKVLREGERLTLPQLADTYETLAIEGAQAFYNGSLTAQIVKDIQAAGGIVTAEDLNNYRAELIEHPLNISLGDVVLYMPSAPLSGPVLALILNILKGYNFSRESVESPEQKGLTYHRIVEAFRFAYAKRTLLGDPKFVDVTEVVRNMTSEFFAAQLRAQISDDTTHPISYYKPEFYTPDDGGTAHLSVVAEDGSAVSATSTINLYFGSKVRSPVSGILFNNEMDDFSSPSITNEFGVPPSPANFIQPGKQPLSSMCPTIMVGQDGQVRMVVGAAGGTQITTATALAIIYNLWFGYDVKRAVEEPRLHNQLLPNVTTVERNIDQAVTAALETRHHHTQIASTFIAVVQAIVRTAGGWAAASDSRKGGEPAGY

Row | hydrolysis activity of γ-glutamyl transpeptidase | SMILES
1 | far greater than GAEA | C=CC(=O)NCCNC(=O)C(CC)NC(=O)CCC(N)C(=O)O (centres unmarked) [GABEA]
2 | lower catalytic activity | C=CC(=O)NCCNC(=O)CCC(N)C(=O)O (centres unmarked) [GAEA]
